This is an account of results in patent US20260285853A1, “COMPOUNDS AND METHODS FOR MODULATING SPLICING” (REMIX THERAPEUTICS INC., priority 2023, published 2026).

Bounds are passed on as bounds.

Holding throughout (format): cell-based
In assay [1] the test system is SH-SY5Y (human neuroblastoma) cells. The assay is described as follows: Cell viability, Cell Titer Glo 2.0 assay. The following applies: read-out: Viability SHSY5Y.3 GI50. A digest of the protocol: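 CellTiter-Glo 2.0 luminescence read-out after 72 h compound exposure (37 °C, 5% CO2); medium-only wells as blank. DMSO 0.1% final.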
(In ATP-based viability assays light output follows the ATP content of the culture.)

Assay [2] concerns MYB mRNA. The assay is described as follows: Splicing RT-qPCR assay (THP), Table 2A. The following applies: Table 2A, THP; for AC50: MYB alternative junction (AJ) mRNA, read-out: MYB AJ (AC50, increase in alternative junction mRNA); for IC50: MYB canonical junction (CJ) mRNA, read-out: MYB CJ (IC50, decrease in canonical junction mRNA). (In general: In qPCR the cycle at which signal appears reflects the starting amount.)

In assay [3] the test system is HTT mRNA. The assay is described as follows: Splicing RT-qPCR assay (THP), Table 2A. The following applies: Table 2A, THP; for AC50: HTT alternative junction (AJ) mRNA, read-out: HTT AJ (AC50, increase in alternative junction mRNA); for IC50: HTT canonical junction (CJ) mRNA, read-out: HTT CJ (IC50, decrease in canonical junction mRNA).
The subject of assay [4] is HTT mRNA. The experiment in a line: Gene panel canonical junction qPCR assay, decrease in CJ mRNA, Table 3. The following applies: decrease in CJ mRNA levels, canonical junction qPCR, gene panel. A digest of the protocol:
(§1)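 Cells: A673 or K562; 24 h compound exposure, 37 °C, 5% CO2; 11-pt 3-fold series from 10 uM final; DMSO ≤0.25%. Lysate → cDNA → qPCR with junction-spanning primers/probe for CJ transcript. ΔCt vs housekeeper, ΔΔCt vs DMSO, 2^(−ΔΔCt), % response, 4PL → IC50.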

Assay [5] has as its system MYB mRNA. The description is as above. The following applies: decrease in CJ mRNA levels, canonical junction qPCR, gene panel. A digest of the protocol: as §1

For the compound `COc1cc2nn(C)cc2cc1NC(=O)c1ccc(N2CCC(NC3CC3)CC2)n2cc(C)nc12` [Compound 618, 5-[4-(cyclopropylamino)-1-piperidyl]-N-(6-methoxy-2-methyl-indazol-5-yl)-2-methyl-imidazo[1,2-a]-pyridine-8-carboxamide], the GI50 (usually the concentration that inhibits growth by half) in assay [1] was in the range of 1 to 10 µM. Also, the figures for the AC50 in assay [2] and in assay [3] were less than 0.1 µM and 1 to 10 µM, respectively. The IC50 (as a rule, the concentration that inhibits the measured activity by half) lay in the range of 0.1 to 1 µM in assay [2], 1 to 10 µM in assay [3], 1 to 10 µM in assay [4] and 0.1 to 1 µM in assay [5].

In the case of `COc1cc2nn(C)cc2cc1NC(=O)c1ccc(N2CCC(NC3CC3)CC2)c2cc(C)nn12` [Compound 619, 4-[4-(cyclopropylamino)-1-piperidyl]-N-(6-methoxy-2-methyl-indazol-5-y1)-2-methyl-pyrazolo[1,5-a]-pyridine-7-carboxamide], in assay [1], the GI50 lay within 1 to 10 µM. Moreover, the AC50 (in general, the midpoint of the concentration-response curve, whichever way the signal moves) in assay [2] lay within 0.1 to 1 µM; in assay [3] it was 1 to 10 µM. The IC50 in assay [2] is 0.1 to 1 µM; in assay [3], 1 to 10 µM; in assay [4], 1 to 10 µM; in assay [5] it was 0.1 to 1 µM.

With `COCc1cc2c(N3CCC(NC4CC4)CC3)ccc(C(=O)Nc3cc(F)c4nc(C)cn4c3)n2n1` [Compound 620, 4-[4-(cyclopropylamino)-1-piperidyl]-N-(8-fluoro-2-methyl-imidazo[1,2-a]pyridin-6-yl)-2-(methoxymethyl)-pyrazolo[1,5-a]pyridine-7-carboxamide], the GI50 in assay [1] was in the range of 0.1 to 1 µM. The AC50 in assay [2] and in assay [3] was 0.1 to 1 µM each time. Moreover, the IC50 in assay [2] is less than 0.1 µM; in assay [3], 0.1 to 1 µM; in assay [4], 0.1 to 1 µM; in assay [5], less than 0.1 µM.

On to `COCc1cc2c(N3CCC(NC4CC4)CC3)ccc(C(=O)Nc3cc4cn(C)nc4cc3OC)n2n1` [Compound 621, 4-[4-(cyclopropylamino)-1-piperidyl]-2-(methoxymethyl)-N-(6-methoxy-2-methyl-indazol-5-yl)-pyrazolo[1,5-a]-pyridine-7-carboxamide], for which the GI50 in assay [1] is 0.1 to 1 µM. In addition, the results for the AC50 in assay [2] and in assay [3] were less than 0.1 µM and 0.1 to 1 µM, respectively. The IC50 fell in the range of 0.1 to 1 µM in assay [2], 1 to 10 µM in assay [3], 1 to 10 µM in assay [4] and 0.1 to 1 µM in assay [5].

As for `Cc1cn2cc(NC(=O)c3ccc(N4CCC(NC5CC5)CC4)c4cc(CO)nn34)cc(F)c2n1` [Compound 622], the GI50 in assay [1] fell in the range of 0.1 to 1 µM. Further, the concentration at half-maximal activity (AC50) in assay [2] and in assay [3] was 0.1 to 1 µM each time. Also, the IC50 in assay [2] was less than 0.1 µM; in assay [3] it was 0.1 to 1 µM; in assay [4], 0.1 to 1 µM; in assay [5], less than 0.1 µM.

Turning to `Cc1cn2cc(NC(=O)c3ccc(N4CCC(NC5CC5)CC4)c4cc(CF)nn34)cc(F)c2n1` [Compound 623, 4-[4-(cyclopropylamino)-1-piperidyl]-2-(fluoromethyl)-N-(8-fluoro-2-methyl-imidazo[1,2-a]-pyridin-6-y1)pyrazolo[1,5-a]pyridine-7-carboxamide], the GI50 in assay [1] is 0.1 to 1 µM. The AC50 was less than 0.1 µM in assay [2] and 0.1 to 1 µM in assay [3]. For the same compound, the IC50 in assay [2] was less than 0.1 µM; in assay [3], 0.1 to 1 µM; in assay [4], 0.1 to 1 µM; in assay [5], less than 0.1 µM.

Take `COc1cc2nn(C)cc2cc1NC(=O)c1c(F)cc(N2CCC(NC3CC3)CC2)c2cc(C)nn12` [Compound 624, 4-[4-(cyclopropylamino)-1-piperidyl]-6-fluoro-N-(6-methoxy-2-methyl-indazol-5-yl)-2-methyl-pyrazolo[1,5-a]pyridine-7-carboxamide]: the GI50 in assay [1] is greater than 10 µM. The AC50 in assay [2] and in assay [3] was greater than 10 µM each time. Further, the IC50 in assay [2], in assay [3], in assay [4] and in assay [5] was greater than 10 µM each time.

As for `COc1cc2nn(C)cc2cc1NC(=O)c1ccc(N2CCC(NC3CC3)CC2)c2cc(CF)nn12` [Compound 625, 4-[4-(cyclopropylamino)-1-piperidyl]-2-(fluoromethyl)-N-(6-methoxy-2-methyl-indazol-5-yl)pyrazolo[1,5-a]-pyridine-7-carboxamide], the GI50 in assay [1] was in the range of 0.1 to 1 µM. Also, the AC50 was less than 0.1 µM in assay [2] and 0.1 to 1 µM in assay [3]. In addition, the IC50 in assay [2] is less than 0.1 µM; in assay [3], 0.1 to 1 µM; in assay [4], 0.1 to 1 µM; in assay [5] it was less than 0.1 µM.

In the case of `COc1cc2nc(C)cn2cc1NC(=O)c1c(F)cc(N2CCC(NC3CC3)CC2)c2cc(C)nn12` [Compound 626, 4-[4-(cyclopropylamino)-1-piperidyl]-6-fluoro-N-(7-methoxy-2-methylimidazo-[1,2-a]pyridin-6-yl)-2-methylpyrazolo-[1,5-a]pyridine-7-carboxamide], in assay [1], the GI50 is greater than 10 µM. Besides, the AC50 in assay [2] and in assay [3] was greater than 10 µM in each case. The IC50 in assay [2], in assay [3], in assay [4] and in assay [5] was greater than 10 µM in each case.

Consider `COc1cc2nn(C)cc2cc1NC(=O)c1c(Cl)cc(N2CCC(NC3CC3)CC2)n2cc(C)nc12` [Compound 627, 7-chloro-5-(4-(cyclopropylamino)piperidin-1-yl)-N-(6-methoxy-2-methyl-2H-indazol-5-yl)-2-methylimidazo[1,2-a]pyridine-8-carboxamide 2,2,2-trifluoroacetate], for which the GI50 in assay [1] is greater than 10 µM. The AC50 in assay [2] and in assay [3] was greater than 10 µM in each case. Besides, the IC50 in assay [2], in assay [3], in assay [4] and in assay [5] was greater than 10 µM in each case.

Turning to `CCNC1CCN(c2ccc(C(=O)Nc3cc4cn(C)nc4cc3OC)c3nc(C)cn23)CC1` [Compound 628, 5-[4-(ethylamino)-1-piperidyl]-N-(6-methoxy-2-methyl-indazol-5-yl)-2-methyl-imidazo[1,2-a]pyridine-8-carboxamide], the GI50 in assay [1] fell in the range of 0.1 to 1 µM. In addition, the figures for the AC50 in assay [2] and in assay [3] were less than 0.1 µM and 0.1 to 1 µM, respectively. For the same compound, the IC50 in assay [2] is less than 0.1 µM; in assay [3], 0.1 to 1 µM; in assay [4], 0.1 to 1 µM; in assay [5], less than 0.1 µM.

`COCCOCc1cc2c(N3CCC(NC4CC4)CC3)ccc(C(=O)Nc3cc(F)c4nc(C)cn4c3)n2n1` [Compound 629, 4-[4-(cyclopropylamino)-1-piperidyl]-N-(8-fluoro-2-methyl-imidazo[1,2-a]-pyridin-6-y1)-2-(2-methoxyethoxy-methyl)-pyrazolo[1,5-a]pyridine-7-carboxamide]: the GI50 in assay [1] was 0.1 to 1 µM. For the same compound, the AC50 in assay [2] was less than 0.1 µM; in assay [3] it was 1 to 10 µM. Also, the IC50 in assay [2] was less than 0.1 µM; in assay [3] it was 0.1 to 1 µM; in assay [4] it was 0.1 to 1 µM; in assay [5] it was less than 0.1 µM.

As for `COc1c(NC(=O)c2ccc(N3CCC(NC4CC4)CC3)c3cc(C)nn23)cn2cc(C)nc(C)c12` [Compound 630, 4-[4-(cyclopropylamino)-1-piperidyl]-N-(8-methoxy-1,3-dimethyl-pyrrolo[1,2-a]pyrazin-7-yl)-2-methyl-pyrazolo[1,5-a]pyridine-7-carboxamide], the GI50 in assay [1] was 1 to 10 µM. The AC50 in assay [2] and in assay [3] was 1 to 10 µM in each case. The IC50 in assay [2], in assay [3], in assay [4] and in assay [5] was 1 to 10 µM in each case.

Regarding `COc1c(NC(=O)c2ccc(N3CCC(NC4CC4)CC3)n3cc(C)nc23)cn2cc(C)nc(C)c12` [Compound 631, 5-[4-(cyclopropylamino)-1-piperidyl]-N-(8-methoxy-1,3-dimethyl-pyrrolo[1,2-a]pyrazin-7-yl)-2-methyl-imidazo[1,2-a]pyridine-8-carboxamide], in assay [1], the GI50 lay within 1 to 10 µM. Besides, the AC50 in assay [2] and in assay [3] was 1 to 10 µM in each case. For the same compound, the IC50 in assay [2], in assay [3], in assay [4] and in assay [5] was 1 to 10 µM throughout.

For the compound `COc1cc2c(N3CCC(NC4CC4)CC3)ccc(C(=O)Nc3cc4cn(C)nc4cc3OC)n2n1` [Compound 632, 4-[4-(cyclopropylamino)-1-piperidyl]-2-methoxy-N-(6-methoxy-2-methyl-indazol-5-yl) pyrazolo[1,5-a]pyridine-7-carboxamide], the GI50 in assay [1] is 1 to 10 µM. The AC50 in assay [2] is less than 0.1 µM; in assay [3] it was 0.1 to 1 µM. Besides, the IC50 is less than 0.1 µM in assay [2], 0.1 to 1 µM in assay [3], 0.1 to 1 µM in assay [4] and less than 0.1 µM in assay [5].

As for `COc1cc2c(N3CCC(NC4CC4)CC3)ccc(C(=O)Nc3cn4cc(C)nc(C)c4n3)n2n1` [Compound 633, 4-[4-(cyclopropyl-amino)-1-piperidyl]-N-(6,8-dimethyl-imidazo[1,2-a]pyrazin-2-yl)-2-methoxypyrazolo [1,5-a]-pyridine-7-carboxamide], the GI50 in assay [1] was greater than 10 µM. For the same compound, the figures for the AC50 in assay [2] and in assay [3] were 0.1 to 1 µM and greater than 10 µM, respectively. The IC50 in assay [2] was 0.1 to 1 µM; in assay [3], greater than 10 µM; in assay [4] it was greater than 10 µM; in assay [5], 0.1 to 1 µM.
